Experimental findings from paper PMC12645589, “mPEG@ELA-11 Alleviates Atherosclerosis via AKT-ER Stress-Mediated Macrophage Modulation” (BME Frontiers, 2025) are described below.

In series [1] the test system is ER stress-associated proteins (p-PERK, p-eIF2α, CHOP, and ATF4). As to the kind of experiment: Western blot of ER stress markers. Type of series: cell-based, murine. The settings on record: ox-LDL + ELA-11 + modulator (1 μM), n = 3. As to the method:
(§1) For foam cell formation assays, cells were seeded in 6-well plates at 1 × 10^6 cells/well. Cells were pretreated with ELA-11 (1 μM) for 2 h before exposure to oxidized low-density lipoprotein (ox-LDL, 50 or 100 μg/ml) for 48 h. Where indicated, cells were cotreated with tunicamycin (1 μM, ER stress activator), ML221 (1 μM, APJ receptor antagonist), Recilisib (1 μM, AKT activator), or 4-PBA (1 μM, ER stress inhibitor).
(§2) Cells were lysed in RIPA buffer supplemented with protease and phosphatase inhibitors. Equal protein amounts were separated by 10% sodium dodecyl sulfate–polyacrylamide gel electrophoresis, followed by transfer to polyvinylidene fluoride membranes. Membranes were blocked with 5% milk and incubated overnight at 4 °C with primary antibodies against p-PERK, PERK, p-eIF2α, eIF2α, ATF4, CHOP, p-AKT, AKT, and GAPDH, followed by horseradish peroxidase-conjugated secondary antibodies. Protein bands were visualized using enhanced chemiluminescence reagents.

The test system of series [2] is RAW264.7 macrophages. Put plainly: Foam cell formation, Oil Red O staining. Type of series: cell-based, murine. The note with it: n = 3; for effect of co-treatment on the protective (foam cell inhibiting) effect of ELA-11: ox-LDL 50 μg/ml 48 h + ELA-11, modulator 1 μM, vs ox-LDL + ELA-11 group. As to the method:
To assess the impact of ELA-11 on foam cell formation, RAW264.7 macrophages were pretreated with ELA-11 (1 μM) for 2 h before being exposed to ox-LDL (50 μg/ml) for 48 h.
as §1
Cells were fixed with 4% paraformaldehyde for 30 min, rinsed with 60% isopropanol, and stained with Oil Red O working solution for 10 min. After washing with distilled water, stained cells were imaged using a light microscope. For quantification, staining intensity was analyzed using ImageJ software.

In series [3] the test system is ApoE^-/- mice. Put plainly: Biosafety evaluation in mice (histology, body weight, blood biochemistry). The note with it: for histopathological changes in major organs (heart, liver, spleen, lungs, and kidneys): 1 mg/kg every 3 days; for tissue morphology of heart, liver, spleen, lungs, and kidneys (H&E), long-term toxicity: 1 mg/kg via the tail vein, once every 3 days for 2 consecutive months, n = 6; for changes in body weight: throughout the treatment period, n=6, p>0.05.
Experimental: To evaluate the safety and biocompatibility of the treatments, histological analysis was performed on major organs (heart, liver, spleen, lungs, and kidneys) from all groups.
At the study endpoint, mice were euthanized under isoflurane anesthesia. Blood was collected for biochemical analysis, and the entire aorta was harvested from the ascending aorta to the iliac bifurcation.
Histological examination of the heart, liver, spleen, lungs, and kidneys in different treatments groups which were respectively injected with the same dose (1 mg/kg) of PBS, ELA-11, and mPEG@ELA-11 via the tail vein, once every 3 days for 2 consecutive months. […] Representative images were chosen from n = 6 mice per group.

The test system of series [4] is RAW264.7 macrophages. As to the kind of experiment: CCK-8 cell viability assay. Type of series: cell-based, murine. As for the experimental part:
Finally, the cytotoxicity of mPEG@ELA-11 was assessed using the CCK-8 assay. […] The absence of cytotoxicity is a critical factor for the potential clinical application of mPEG@ELA-11.
Cell viability was assessed using the CCK-8 kit (Biosharp, China) according to the manufacturer’s instructions. Cells were seeded in 96-well plates at 1 × 10^5 cells/ml and treated with various compounds for 24 to 72 h before analysis.
In general terms: Formazan colour is commonly taken as a measure of viable cells.

The subject of another series is AKT phosphorylation. Put plainly: Western blot of AKT phosphorylation. Type of series: cell-based, murine. The settings on record: ox-LDL + ELA-11 + modulator (1 μM), n = 3. As to the method: as §1, §2
(A western blot detects proteins with antibodies after separation by electrophoresis.)

Series [5] in a line: Nanoparticle size by DLS and TEM. Type of series: physicochemical. As for the experimental part: The slight difference between DLS and TEM measurements is expected, as DLS measures the hydrodynamic diameter in solution, while TEM visualizes dehydrated NPs.
(§3) NP characterization was performed using FT-IR, NMR, DLS, and TEM. pH-responsive drug release was evaluated at pH values of 5.5, 6.5, and 7.4. For fluorescence imaging, NPs were labeled with ICG, Cy5 or Cy5.5.

The nature of series [6]: pH-responsive in vitro release of ELA-11. Type of series: physicochemical. As for the experimental part: To assess the pH-responsive release behavior of mPEG@ELA-11, in vitro release studies were conducted. […] At 12 h post-injection, only 45% of Cy5-mPEG@ELA-11 was degraded, while 70% of Cy5-ELA-11 had already been degraded.
as §3

Series [7] deals with ApoE^-/- mice. Put plainly: Atherosclerosis in ApoE-/- mice fed a high-fat diet. Type of series: in vivo. The settings on record: HFD. The source says: To evaluate the therapeutic efficacy of ELA-11 in AS, ApoE^-/- mice fed a high-fat diet (HFD) were utilized as an established AS model. Male ApoE^-/- mice were randomly allocated into 3 groups (n = 6 per group): a control group fed a normal chow diet (NCD), an HFD group treated with phosphate-buffered saline (HFD + PBS), and a treatment group treated with ELA-11 (HFD + ELA-11). ApoE^-/- mice were initiated on HFD at 8 weeks of age. Four weeks later, at the beginning of the fifth week of HFD feeding, mice in the HFD + ELA-11 group received intraperitoneal injections of ELA-11 (1 mg/kg) every 3 days for a total of 19 injections. Mice were sacrificed at 20 weeks of age (Fig. 4A).
To evaluate the therapeutic potential of mPEG@ELA-11 NPs in vivo, a series of experiments were conducted using ApoE^-/- mice fed an HFD for 3 months to induce AS. The mice were randomly assigned to 4 groups (n = 6): a negative control group fed an NCD, an HFD group treated with PBS (HFD + PBS), an HFD group treated with free ELA-11 (HFD + ELA-11), and an HFD group treated with mPEG@ELA-11 NPs (HFD + mPEG@ELA-11). The administration route, frequency, and dosage were the same as described above.
Male ApoE^-/- mice (26 to 31 g, 8 weeks old) were obtained from GemPharmatech Co., Ltd. and housed under specific pathogen-free conditions. Mice were randomly allocated into 4 groups (n = 6/group): NCD, HFD + PBS, HFD + ELA-11, and HFD + mPEG@ELA-11. The HFD (Research Diets D12079B) consisted of 21% fat and 0.21% cholesterol. Drug treatments (1 mg/kg) were administered intraperitoneally every 3 days for 8 weeks, beginning at week 13. All animal procedures were approved by the institutional animal care committee.

Series [8] can be described thus: Colloidal stability in physiological media over 5 days. The settings on record: mean ± SD. Type of series: physicochemical. As for the experimental part: The colloidal stability of mPEG@ELA-11 was evaluated in various physiological media over a 5-day period. The hydrodynamic diameter remained stable in PBS, serum, and 1640 culture medium, with only minor increases observed over time (Fig. 5E). On day 1, the sizes in PBS, serum, and 1640 medium were 36 ± 2.12, 43 ± 3.01, and 44 ± 4.53 nm, respectively. By day 5, these had increased slightly to 42 ± 3.36, 49 ± 3.49, and 50 ± 2.98 nm, respectively.

In series [9] the test system is ApoE^-/- mice. As to the kind of experiment: Serum inflammatory markers and lipids in treated ApoE-/- mice. Type of series: in vivo.
Text: At the study endpoint, mice were euthanized under isoflurane anesthesia. Blood was collected for biochemical analysis, and the entire aorta was harvested from the ascending aorta to the iliac bifurcation. For en face analysis, aortas were stained with Oil Red O. The aortic root was sectioned for histological analysis, including Oil Red O, H&E, Masson’s trichrome, and immunofluorescence staining for CD31 and α-SMA.
Where [10] appears, read: n = 6, P < 0.05, the words describe the HFD group, i.e. treated groups lower.

Where two headings read alike, the source gives them in different places.

`O=C(O)c1ccc(/C=C/S(=O)(=O)Cc2ccc(Cl)cc2)cc1` [Recilisib]: the “effect of co-treatment on the suppression of ER stress markers by ELA-11” value (“effect … of ER stress markers by ELA-11” for short) in [1] is “lost its inhibitory effect”. The “effect of co-treatment on the protective (foam cell inhibiting) effect of ELA-11” value (from here on “effect … (foam cell inhibiting) effect of ELA-11”) in the series with RAW264.7 macrophages [2] is on record as “reversed”.
As to `CSCC[C@H](NC(=O)[C@@H](N)CS)C(=O)N1CCC[C@H]1C(=O)N[C@@H](CC(C)C)C(=O)N[C@@H](Cc1cnc[nH]1)C(=O)N[C@@H](CO)C(=O)N[C@@H](CCCNC(=N)N)C(=O)N[C@H](C(=O)N1CCC[C@H]1C(=O)N[C@@H](Cc1ccccc1)C(=O)N1CCC[C@H]1C(=O)O)C(C)C` [ELA-11], in the series with ApoE^-/- mice [3], the “histopathological changes in major organs (heart, liver, spleen, lungs, and kidneys)” value was “No significant histopathological changes”; the “tissue morphology of heart, liver, spleen, lungs, and kidneys (H&E), long-term toxicity” value is “no appreciable changes in tissue morphology”; the “changes in body weight” value is on record as “No significant histopathological changes in any of the organs or abnormal changes in body weight were observed”. For the same molecule, in the series with RAW264.7 macrophages [4], the “cytotoxicity (cell viability assay)” value was “no significant cytotoxicity”.
Take `O=C(Oc1coc(CSc2ncccn2)cc1=O)c1ccc([N+](=O)[O-])cc1` [ML221]: the “effect … of ER stress markers by ELA-11” value in [1] is “partially reverse”. The “effect … (foam cell inhibiting) effect of ELA-11” value with RAW264.7 macrophages [2] was “significantly attenuated”. Besides, in the series with RAW264.7 macrophages [4], the “cytotoxicity (cell viability assay)” value is listed as “no significant cytotoxicity”. Also, the “effect of co-treatment on the inhibition of AKT signaling by ELA-11” value with AKT phosphorylation is recorded as “attenuated”.
Turning to `O=C(O)CCCc1ccccc1` [4-PBA, 4-phenylbutyric acid], the “foam cell formation (Oil Red O), rescue experiment” value in the series on RAW264.7 macrophages [2] (ox-LDL 50 μg/ml 48 h, cotreatment, P < 0.0001 vs ox-LDL group) is given as “comparable”.
Turning to Tunicamycin, the “effect … of ER stress markers by ELA-11” value in [1] is “diminished”. Besides, the “effect … (foam cell inhibiting) effect of ELA-11” value with RAW264.7 macrophages [2] is reported as “significantly attenuated”. In the series on RAW264.7 macrophages [4] (CCK-8, ox-LDL-induced Raw264.7 macrophages, concentrations employed in the study, 24 and 48 hours, n=4, p > 0.05 (Fig. S1)), the “cytotoxicity (cell viability assay)” value is listed as “no significant cytotoxicity”. The “effect of co-treatment on the inhibition of AKT signaling by ELA-11” value with AKT phosphorylation was “maintained its inhibitory effect”.
Turning to “methoxy polyethylene glycol@Elabela-11 [mPEG@ELA-11]”, in [5] (dehydrated NPs), the “size (TEM)” value is recorded as ~ 25 nm. Besides, the “hydrodynamic diameter (DLS)” value in [5] (in PBS) is reported as ~ 35 nm. Also, the “release of ELA-11” value in [6] (pH 5.5, after 48 h) is reported as 91.2%; in series [6] (pH 6.5, after 48 h), 74.1%; in [6] (pH 7.4, after 48 h), 38.7%. Besides, the “histopathological changes in major organs (heart, liver, spleen, lungs, and kidneys)” value with ApoE^-/- mice [3] is reported as “No significant histopathological changes”. Further, the “tissue morphology of heart, liver, spleen, lungs, and kidneys (H&E), long-term toxicity” value in the series on ApoE^-/- mice [3] is reported as “no appreciable changes in tissue morphology”. The “changes in body weight” value in the series with ApoE^-/- mice [3] was “No significant histopathological changes in any of the organs or abnormal changes in body weight were observed”. Besides, the “necrotic core size in aortic root sections, compared to free ELA-11” value in the series with ApoE^-/- mice [7] (1 mg/kg i.p. every 3 days, H&E, n = 6, P < 0.05) is “more substantial decrease”. Moreover, the “overall plaque area in aortic root sections, compared to free ELA-11” value in the series with ApoE^-/- mice [7] (1 mg/kg i.p. every 3 days, Oil Red O, n = 6, P < 0.001) is given as “more substantial decrease”. The “collagen content within the plaques (Masson's trichrome, aortic root)” value with ApoE^-/- mice [7] (1 mg/kg i.p. every 3 days, n = 6, P < 0.0001, no significant difference between the 2 treatment groups) was “increased collagen content”. Also, the “atherosclerotic plaque area of the entire aorta (Oil Red O), compared to free ELA-11” value in the series with ApoE^-/- mice [7] (1 mg/kg i.p. every 3 days, n = 6, P < 0.001) was “greater reduction”. Besides, the “integrity of the vascular endothelium (CD31 immunofluorescence)” value in the series with ApoE^-/- mice [7] (n = 6, P < 0.001, P < 0.0001) was “more effective than free ELA-11”. Moreover, the “smooth muscle cell proliferation in the plaque area (α-SMA immunofluorescence)” value in the series on ApoE^-/- mice [7] (vs ELA-11 and HFD + PBS group, n = 6, P < 0.05, P < 0.01) is reported as “significantly inhibited smooth muscle cell proliferation”. The “hydrodynamic diameter, colloidal stability” value in series [8] (1640 culture medium, day 1) worked out at 44 ± 4.53 nm; in [8] (1640 culture medium, day 5) it was 50 ± 2.98 nm; in series [8] (PBS, day 1), 36 ± 2.12 nm; in series [8] (PBS, day 5), 42 ± 3.36 nm; in series [8] (serum, day 1), 43 ± 3.01 nm; in series [8] (serum, day 5), 49 ± 3.49 nm. For the same molecule, in the series on ApoE^-/- mice [9] (HFD, among the groups, n = 6), the “IL-1β levels in blood serum” value is given as “no significant differences”. Besides, the “IL-6 in blood serum compared to the HFD group” value in the series with ApoE^-/- mice [9] (HFD, n = 6, P < 0.05) is given as “significantly lower”. Moreover, the “TNF-α in blood serum compared to the HFD group” value with ApoE^-/- mice [9] (HFD, n = 6, P < 0.05) is “significantly lower”. Moreover, the “LDL-C: HFD group compared to the treatment group” value in the series on ApoE^-/- mice [9] (setting [10]) is “significantly higher”. In addition, in the series on ApoE^-/- mice [9] (setting [10]), the “total cholesterol: HFD group compared to the treatment group” value was “significantly higher”. Also, the “triglycerides: HFD group compared to the treatment group” value with ApoE^-/- mice [9] (setting [10]) is on record as “significantly higher”.
